Results as given in US7968526B2, “Antisense oligonucleotides directed to ribonucleotide reductase R2 and uses thereof in the treatment of cancer” (Lorus Therapeutics Inc., priority 2003, dated 2011).
Entries after “also recorded” stand apart in the source; their conditions may differ.

Columns and labels:
Assay type in all cases: in vivo, human cells in mice
[1] = test system: A498 human kidney cancer cells; assay: A498 kidney tumour xenograft in SCID mice, controls and chemotherapeutics (Example 7); conditions: oligonucleotides 10 mg/kg/2 days i.v., 5-FU 13 mg/kg/day×5, vinblastine 1 mg/kg/week, gemcitabine 100 mg/kg/week
Text: CD-1 athymic female nude mice, BALB/c nu/nu nude mice, SCID, and SCID beige mice were purchased from Charles River Laboratories (Montreal, Canada) and experiments were typically initiated when the mice were 6-7 weeks old. […] Each experimental group typically contained 10 mice. After the size of tumour reached a mean tumour volume of 50-100 mm^3, treatment was initiated. […] Anti-tumour activity was estimated by the measurement of tumour volume with a calliper at two-three day intervals. Tumour volume was calculated by a formula L×W×H/2, where L indicates length, W indicates width and H indicates height. Within 24 hours after the last treatment, the animals were sacrificed and tumour and body weights were measured. Results of statistical analyses of the data are presented as P values in the figure legends.
Three additional treatment groups received: 5-FU (13 mg/kg/day×5), vinblastine (1 mg/kg/week) and gemcitabine (100 mg/kg/week). […] Caliper measurements at 1-week intervals were used to calculate tumour volumes. Each point in FIG. 28C represents mean tumour volume calculated from 10 animals per experimental group (with the exception of SEQ ID NO: 1 which was 8 animals). […] After 54 days the mice were sacrificed and the A498 tumours weighed. Each bar represents the mean tumour weight and standard error calculated for each treatment group.

[2] = test system: Caki-1 human renal cancer cells; assay: Caki-1 renal tumour xenograft, combination with 5-FU or vinblastin (1.3); conditions: Caki (renal), CD-1 mouse as printed; SEQ ID NO:1 10 mg/kg i.v. every other day; 5-FU 13 mg/kg/day i.p.; vinblastin 0.6 mg/kg/week i.p.
Text: All treatments were stopped at day 22. […] All treatments were stopped at day 32. […] All treatments were stopped at day 36.

[3] = test system: MDA-MB-231 human breast cancer cells; assay: MDA-MB-231 breast tumour xenograft in CD-1 nude mice, combination with taxol or doxorubicin (1.7); conditions: MDA-MB-231 (breast), CD-1; SEQ ID NO:1 10 mg/kg i.v. every other day; Taxol 10 mg/kg i.v. weekly; doxorubicin 5 mg/kg i.v. weekly
Method: After 52 days the mice were sacrificed and the tumours weighed. […] Mitoxantrone was administered intravenously once at the beginning of the treatments at a dose of 2 mg/kg (FIG. 4A) or once a week for four weeks at a reduced dose of 0.8 mg/kg (FIG. 4B). All treatments were stopped at day 50 (FIG. 4A) or 48 (FIG. 4B), respectively. […] Mitoxantrone was administered intravenously once at the beginning of the treatments at a dose of 2 mg/kg (FIG. 5A) or once a week for four weeks at a reduced dose of 0.8 mg/kg (FIG. 5B). All treatments were stopped at day 42 (FIG. 5A) or 38 (FIG. 5B), respectively. […] A2058 is a metastatic melanoma cell line. […] All treatments were stopped at day 24. […] Taxol was administered intravenously once a week at a dose of 10 mg/kg for three (FIG. 7A) or four weeks (FIG. 7C). Doxorubicin was administered intravenously once a week at a dose of 5 mg/kg for first three weeks (FIG. 7A) or for two weeks (FIG. 7C). All treatments were stopped at day 33 (FIG. 7A) or at day 26 (FIG. 7C), respectively. […] In FIG. 7C, antitumour activities were estimated by the inhibition of tumour volume, which was measured with calipers. Each point represents mean tumour volume calculated from 10 animals per experimental group. […] Taxol was administered intravenously once a week for first three weeks and intraperitoneally once a week for next two weeks at a dose of 10 mg/kg. Cisplatin was administered intravenously once a week for first three weeks and intraperitoneally once a week for next two weeks at a dose of 4 mg/kg. All treatments were stopped at day 40. Antitumour activities were estimated by the inhibition of tumour volume, which was measured with caliper. Each point represents mean tumour volume calculated from 9 animals per experimental group.

Row | Compound | Effect on tumour growth (volume and weight) [1] | Tumour weight as % of saline control [2] | Tumour weight as % of saline control [3]
1 | O=c1[nH]cc(F)c(=O)[nH]1 [5-FU, 5-fluorouracil] | ineffective in stabilization of the tumours; also recorded: tumours that were equal in volume and weight to tumours of saline-treated animals | 52% | 
2 | COc1cccc2c1C(=O)c1c(O)c3c(c(O)c1C2=O)C[C@@](O)(C(=O)CO)C[C@@H]3O[C@H]1C[C@H](N)[C@H](O)[C@H](C)O1 [Doxorubicin] |  |  | 41%
